In test [1] the target is human GABAA α1β2γ1 receptor (Homo sapiens (Human), UniProt P14867+Q8N1C3). The test is described as follows: Radioligand binding assay for γ1-containing GABAA subtypes, [3H]RO7239181 competition (α1β2γ1). As to the method:
The affinity of compounds at GABAA γ1 subunit-containing receptors was measured by competition for [^3H]RO7239181 (67.3 Ci/mmol; Roche) binding to membranes from HEK293F cells (ThermoFisher R79007) expressing human (transiently transfected) receptors of composition α5β2γ1, α2β2γ1, α1β2γ1.
Harvested pellets from HEK293F cells expressing the different GABAA receptor subtypes were resuspended in Mannitol Buffer pH 7.2-7.4 (Mannitol 0.29 M, Triethylamine 10 mM, Acetic acid 10 mM, EDTA 1 mM plus protease inhibitors (20 tablets Complete, Roche Diagnostics Cat. No. 05 056 489 001 per liter)), washed two times and then resuspended at 1:10 to 1:15 dilution in the same buffer. Cell disruption was performed by stirring the suspension in a Parr vessel #4637 at 435 psi for 15 minutes, and then the suspensions were centrifuged at 1000×g for 15 minutes at 4° C. (Beckman Avanti J-HC; rotor JS-4.2). The supernatant (S1) was transferred in a 2 l Schott flask and the pellet (P1) was resuspended with Mannitol Buffer up to 175 ml. The resuspended pellet was transferred into a 250 ml Corning centrifugal beaker and centrifuged at 1500×g for 10 minutes at 4° C. (Beckman Avanti J-HC; rotor JS-4.2). The supernatant (S1) was then transferred in the 2 l Schott flask and the pellet was discarded. The supernatants (S1) were centrifuged in 500 ml Beckman polypropylene centrifugal beaker at 15′000×g for 30 minutes at 4° C. (Beckman Avanti J-20 XP; rotor JLA-10.500). The pellet (P2) was resuspended with Mannitol Buffer 1:1 and frozen at −80° C. The supernatant (S2) was centrifuged in 100 ml Beckman polypropylene centrifugal tubes at 48000×g for 50 minutes at 4° C. (Beckman Avanti J-20 XP; rotor JA-18). The supernatant (S3) was discarded and the pellet (P3) was resuspended with 1:1 Mannitol Buffer. The P2 and P3 protein concentration was determined with the BIORAD Standard assay method with bovine serum albumin as standard and measured on the NANO-Drop 1000. The membrane suspension was aliquots (500 μl per tube) and stored at −80° C. until required.
Membrane homogenates were resuspended and polytronised (Polytron PT1200E Kinematica AG) in Potassium Phosphate 10 mM, KCl 100 mM binding buffer at pH 7.4 to a final assay concentration determined with a previous experiment.
Assays were incubated to equilibrium for 1 hour at 4° C. and then, membranes were filtered onto unifilter (96-well white microplate with bonded GF/C filters preincubated 20-50 minutes in 0.3% Polyethylenimine) with a Filtermate 196 harvester (Packard BioScience) and washed 4 times with cold Potassium Phosphate 10 mM pH 7.4, KCl 100 mM binding buffer. After anhydrousing, filter-retained radioactivity was detected by liquid scintillation counting. Ki values were calculated using Excel-Fit (Microsoft) and are the means of two determinations.

The target in test [2] is human GABAA α2β2γ1 receptor (Homo sapiens (Human), UniProt P47869+Q8N1C3). Description: Radioligand binding assay for γ1-containing GABAA subtypes, [3H]RO7239181 competition (α2β2γ1).
For test [3], the target named is human GABAA α1β3γ2 receptor (Homo sapiens (Human), UniProt P14867+P18507). The test is described as follows: Radioligand binding assay for γ2-containing GABAA subtypes, [3H]Flumazenil competition (α1β3γ2). The following applies: for γ2/γ1 Selectivity Ratio: Ki α1β3γ2 (nM)/Ki α2β2γ1 (nM); for LogSel: Log[Ki α1β3γ2 (nM)/Ki α2β2γ1 (nM)].
In test [4] the target is α2β2γ1 GABAA receptor subtype (Homo sapiens (Human), UniProt P47869+Q8N1C3). Description: Two-electrode voltage clamp electrophysiology in Xenopus oocytes expressing GABAA receptors (modulation of GABA EC20 current). It is filed as cell-based. The following applies: for Efficacy (GABA)%: % modulation of GABA EC20 = 100*(Fold increase-1), α2β2γ1 oocytes, compound at approx. 30-fold Ki; for Fold increase h-GABA-A α2β2γ1 oocyte @ 30-fold Ki: Xenopus oocytes expressing α2β2γ1, compound at approx. 30-fold its Ki α2β2γ1, GABA EC20 current. An outline of the steps:
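Each concentration was tested on ≥3 oocytes held at −80 mV at room temperature, recorded 3-5 days post-injection. A control and a test response to EC20 GABA (1.5 min each) were superimposed and their point-by-point ratio taken. Peak ratio reported as % modulation of GABA EC20 = 100×(fold increase−1).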
Background: Two-electrode voltage clamp holds a large cell at a set potential and records current.

Test [5] has as its target human GABAA α5β2γ1 receptor (Homo sapiens (Human), UniProt P31644+Q8N1C3). The test is described as follows: Radioligand binding assay for γ1-containing GABAA subtypes, [3H]RO7239181 competition (α5β2γ1).
Setting [6] is: Ki h-GABAA α2β2γ1, [3H]RO7239181 competition binding, human GABAA α2β2γ1.
[7] abbreviates: Ki h-GABAA α2β2γ1, displacement of [3H]RO7239181, membranes of HEK293F cells expressing human receptors, means of two determinations.

Here are results for ten compounds from US12365687B2 (Hoffmann-La Roche Inc., priority 2021, dated 2025).

Bounds are passed on as bounds.

A word on the Ki: it is a measure of affinity in units of concentration, obtained from inhibition or displacement. A low value points to a stronger hold on the target.

With `C[C@@H]1N=C(c2c(F)cccc2F)c2c(ccc(C(F)(F)F)c2Cl)-n2nc(C(=O)NN(C)C)nc21` [Example 117, (4S)-7-chloro-6-(2,6-difluorophenyl)-N′,N′,4-trimethyl-8-(trifluromethyl)-4H-[1,2,4]triazolo[1,5-a][1,4]benzodiazepine-2-carbohydrazide], the Ki was 0.0992 µM in test [1]; 0.02 µM in test [2] (setting [6]); 0.02 µM in test [2] (setting [7]); 5.51 µM in test [3]; 0.00314 µM in test [5]. The “γ2/γ1 Selectivity Ratio” value in test [3] is recorded as 276.4. In test [3], the LogSel was found to be 2.44. Further, the “Efficacy (GABA)%” value in test [4] is listed as 92%. For the same compound, in test [4], the “Fold increase h-GABA-A α2β2γ1 oocyte @ 30-fold Ki” value amounted to 1.92.

As for `C[C@@H]1N=C(c2c(F)cccc2F)c2c(ccc(C(F)(F)F)c2Cl)-n2nc(N3CCOC3=O)nc21` [Example 121, 3-[(4S)-7-chloro-6-(2,6-difluorophenyl)-4-methyl-8-(trifluoromethyl)-4H-[1,2,4]triazolo[1,5-a][1,4]benzodiazepin-2-yl]oxazolidin-2-one], the Ki was found to be 0.0391 µM in test [1]; 0.0055 µM in test [2] (setting [6]); 0.0055 µM in test [2] (setting [7]); 1.21 µM in test [3]; 0.00143 µM in test [5]. In addition, in test [3], the “γ2/γ1 Selectivity Ratio” value was determined as 218.2. Besides, the LogSel in test [3] came to 2.34. The “Efficacy (GABA)%” value in test [4] is on record as 52%. Also, the “Fold increase h-GABA-A α2β2γ1 oocyte @ 30-fold Ki” value in test [4] is on record as 1.52.

Turning to `C[C@@H]1N=C(c2c(F)cccc2F)c2c(ccc(C(F)(F)F)c2Cl)-n2nc(C(=O)N3CCC3)nc21` [Example 26, azetidin-1-yl-[(4S)-7-chloro-6-(2,6-difluorophenyl)-4-methyl-8-(trifluoromethyl)-4H-[1,2,4]triazolo[1,5-a][1,4]benzodiazepin-2-yl]methanone], the Ki in test [1] is 0.0381 µM; in test [2] (setting [6]) it was 0.0086 µM; in test [2] (setting [7]) it was 0.0086 µM; in test [3] it was 1.84 µM; in test [5], 0.00248 µM. For the same compound, the “γ2/γ1 Selectivity Ratio” value in test [3] was 213.1. Also, the LogSel in test [3] worked out at 2.33. Further, the “Efficacy (GABA)%” value in test [4] was 75%. Also, the “Fold increase h-GABA-A α2β2γ1 oocyte @ 30-fold Ki” value in test [4] is 1.75.

`COC1CN(C(=O)c2nc3n(n2)-c2ccc(C(F)(F)F)c(Cl)c2C(c2ncccc2F)=N[C@H]3C)C1` [Example 103, [(4S)-7-chloro-6-(3-fluoro-2-pyridyl)-4-methyl-8-(trifluoromethyl)-4H-[1,2,4]triazolo[1,5-a][1,4]benzodiazepin-2-yl]-(3-methoxyazetidin-1-yl)methanone]: the Ki was 0.178 µM in test [1]; 0.0254 µM in test [2] (setting [6]); 0.0253 µM in test [2] (setting [7]); greater than 30 µM in test [3]; 0.00987 µM in test [5]. Also, the “γ2/γ1 Selectivity Ratio” value in test [3] worked out at 1183.4. The LogSel in test [3] came out at 3.07. For the same compound, in test [4], the “Efficacy (GABA)%” value is given as 113%. For the same compound, in test [4], the “Fold increase h-GABA-A α2β2γ1 oocyte @ 30-fold Ki” value was 2.13.

With `COC1CN(C(=O)c2cn3c(n2)CN=C(c2ccccc2F)c2c-3ccc(Cl)c2Cl)C1` [Example 1, (7,8-dichloro-6-(2-fluorophenyl)-4H-benzo[f]imidazo[1,2-a][1,4]diazepin-2-yl)(3-methoxyazetidin-1-yl)methanone], the Ki was found to be 0.0351 µM in test [1]; 0.025 µM in test [2] (setting [6]); 0.025 µM in test [2] (setting [7]); 0.638 µM in test [3]; 0.00319 µM in test [5]. Further, the “γ2/γ1 Selectivity Ratio” value in test [3] came out at 25.5. In test [3], this compound gave a LogSel of 1.41. The “Efficacy (GABA)%” value in test [4] was 77%. In addition, the “Fold increase h-GABA-A α2β2γ1 oocyte @ 30-fold Ki” value in test [4] amounted to 1.77.

Consider `C[C@@H]1N=C(c2c(F)cccc2F)c2c(ccc(C(F)(F)F)c2Cl)-n2nc(C(=O)N3CCS(=O)(=O)CC3)nc21` [Example 114, [(4S)-7-chloro-6-(2,6-difluorophenyl)-4-methyl-8-(trifluoromethyl)-4H-[1,2,4]triazolo[1,5-a][1,4]benzodiazepin-2-yl]-(1,1-dioxo-1,4-thiazinan-4-yl)methanone], for which the Ki in test [1] is 0.0232 µM; in test [2] (setting [6]) it was 0.0095 µM; in test [2] (setting [7]) it was 0.0095 µM; in test [3], 3.09 µM; in test [5], 0.00373 µM. Besides, the “γ2/γ1 Selectivity Ratio” value in test [3] is recorded as 325.5. The compound further yielded a LogSel in test [3] of 2.51. The “Efficacy (GABA)%” value in test [4] is recorded as 88%. In test [4], the “Fold increase h-GABA-A α2β2γ1 oocyte @ 30-fold Ki” value is reported as 1.88.

Turning to `C[C@@H]1N=C(c2c(F)cccc2F)c2c(ccc(C(F)(F)F)c2Cl)-n2nc(C(=O)NCCO)nc21` [Example 107, (4S)-7-chloro-6-(2,6-difluorophenyl)-N-(2-hydroxyethyl)-4-methyl-8-(trifluoromethyl)-4H-[1,2,4]triazolo[1,5-a][1,4]benzodiazepine-2-carboxamide], the Ki turned out to be 0.0651 µM in test [1]; 0.014 µM in test [2] (setting [6]); 0.0116 µM in test [2] (setting [7]); 3.7 µM in test [3]; 0.0025 µM in test [5]. In test [3], the “γ2/γ1 Selectivity Ratio” value was found to be 319.1. In test [3], this compound had a LogSel of 2.50. Moreover, the “Efficacy (GABA)%” value in test [4] is on record as 103%. For the same compound, the “Fold increase h-GABA-A α2β2γ1 oocyte @ 30-fold Ki” value in test [4] worked out at 2.03.

Take `CCOC1CN(C(=O)c2nc3n(n2)-c2ccc(C(F)(F)F)c(Cl)c2C(c2ncccc2F)=N[C@H]3C)C1` [Example 137, [(4S)-7-chloro-6-(3-fluoro-2-pyridyl)-4-methyl-8-(trifluoromethyl)-4H-[1,2,4]triazolo[1,5-a][1,4]benzodiazepin-2-yl]-(3-ethoxyazetidin-1-yl)methanone]: the Ki in test [1] was 0.13 µM; in test [2] (setting [6]), 0.0426 µM; in test [2] (setting [7]) it was 0.0426 µM; in test [3], 10.5 µM; in test [5], 0.00658 µM. Moreover, the “γ2/γ1 Selectivity Ratio” value in test [3] is 246.0. Also, the LogSel in test [3] was found to be 2.39. In test [4], the “Efficacy (GABA)%” value is reported as 129%. In addition, the “Fold increase h-GABA-A α2β2γ1 oocyte @ 30-fold Ki” value in test [4] is 2.29.

For the compound `C[C@@H]1N=C(c2c(F)cccc2F)c2c(ccc(Cl)c2Cl)-n2nc(C(=O)NCCO)nc21` [Example 54, (4S)-7,8-dichloro-6-(2,6-difluorophenyl)-N-(2-hydroxyethyl)-4-methyl-4H-[1,2,4]triazolo[1,5-a][1,4]benzodiazepine-2-carboxamide], the Ki in test [1] was determined as 0.0152 µM; in test [2] (setting [6]) it was 0.0044 µM; in test [2] (setting [7]), 0.00438 µM; in test [3], 0.581 µM; in test [5], 0.00097 µM. Further, the “γ2/γ1 Selectivity Ratio” value in test [3] is on record as 132.7. Also, in test [3], the LogSel is given as 2.12. Besides, the “Efficacy (GABA)%” value in test [4] came to 80%. In test [4], the “Fold increase h-GABA-A α2β2γ1 oocyte @ 30-fold Ki” value amounted to 1.80.

Regarding `C[C@@H]1N=C(c2ncccc2F)c2c(ccc(C(F)(F)F)c2Cl)-n2nc(C(=O)N3CCC3)nc21` [Example 85, azetidin-1-yl-[(4S)-7-chloro-6-(3-fluoro-2-pyridyl)-4-methyl-8-(trifluoromethyl)-4H-[1,2,4]triazolo[1,5-a][1,4]benzodiazepin-2-yl]methanone], the Ki in test [1] is 0.224 µM; in test [2] (setting [6]) it was 0.0609 µM; in test [2] (setting [7]), 0.0609 µM; in test [3], 8.86 µM; in test [5], 0.00851 µM. The “γ2/γ1 Selectivity Ratio” value in test [3] was 145.5. This compound gave a LogSel in test [3] of 2.16. Moreover, the “Efficacy (GABA)%” value in test [4] turned out to be 140%. Also, the “Fold increase h-GABA-A α2β2γ1 oocyte @ 30-fold Ki” value in test [4] is on record as 2.40.
